These results are taken from patent US11306078B2, “Piperidine CXCR7 receptor modulators” (IDORSIA PHARMACEUTICALS LTD., priority 2016, dated 2022).

pIC50: −log10 of the molar value.

The test deals with human chemokine receptor CXCR7 (Homo sapiens (Human), UniProt P25106). The test can be described thus: Tango CXCR7-bla U2OS beta-arrestin recruitment assay (beta-lactamase reporter, FRET), antagonism of CXCL12/SDF1-α.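 Note: compounds preincubated 15 min before CXCL12 addition, then 22 h at 37 °C, FRET emission ratio read with CCF4-AM substrate after 2 h.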 The test is classed as cell-based. The settings on record: antagonistic effect on CXCR7; Tango CXCR7-bla U2OS cells, CXCL12/SDF1-α at its EC80. On the technique in general: Recruitment of arrestin is a read-out of receptor activation apart from second messengers.
Chain of human chemokine receptor CXCR7 (P25106 whole entry): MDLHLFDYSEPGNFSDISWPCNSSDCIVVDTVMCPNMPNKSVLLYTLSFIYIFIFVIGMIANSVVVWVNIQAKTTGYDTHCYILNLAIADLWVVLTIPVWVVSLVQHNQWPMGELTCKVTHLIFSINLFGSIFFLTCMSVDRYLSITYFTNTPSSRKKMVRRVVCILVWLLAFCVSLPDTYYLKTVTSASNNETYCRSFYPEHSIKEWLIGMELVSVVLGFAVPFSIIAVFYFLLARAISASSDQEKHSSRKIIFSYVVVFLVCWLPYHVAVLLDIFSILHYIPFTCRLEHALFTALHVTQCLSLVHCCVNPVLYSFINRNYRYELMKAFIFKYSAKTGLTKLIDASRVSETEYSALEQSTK
Regarding `Cc1ccc(-c2cc(C(=O)N[C@H]3CCN(CC4CC4)C[C@@H]3C(=O)NC3(c4ncccn4)CC3)no2)c(C)c1` [Example 7.005, (3S,4S)-1-Cyclopropylmethyl-4-{[5-(2,4-dimethyl-phenyl)-isoxazole-3-carbonyl]-amino}-piperidine-3-carboxylic acid (1-pyrimidin-2-yl-cyclopropyl)-amide], the pIC50 is 7.44.

`CN(CC1COC1)C(=O)[C@@H]1CN(C2CCCCC2)CC[C@H]1NC(=O)c1cc(-c2ccc(F)cc2F)on1` (racemic) [Example 1.039, rac-(3R*,4R*)-1-Cyclohexyl-4-{[5-(2,4-difluoro-phenyl)-isoxazole-3-carbonyl]-amino}-piperidine-3-carboxylic acid methyl-oxetan-3-ylmethyl-amide] showed a pIC50 of 6.31.

On to `O=C(N[C@H]1CCN(C2CCCC2)C[C@@H]1C(=O)NC1(C2CC2)CC1)c1cc(-c2ccc(F)cc2F)on1` [Example 4.036], for which the pIC50 was 6.90.

The molecule `CN(C)C(=O)[C@@H]1CN(C2CCCCC2)CC[C@H]1NC(=O)c1nnc(-c2ccc(F)cc2F)o1` (racemic) [Example 3.003, rac-(3R*,4R*)-1-Cyclohexyl-4-{[5-(2,4-difluoro-phenyl)-[1,3,4]oxadiazole-2-carbonyl]-amino}-piperidine-3-carboxylic acid dimethylamide] had a pIC50 of 6.98.

Molecule `O=C(N[C@@H]1CCN(CC2CC2)C[C@H]1C(=O)N1CC[C@@H]1c1ccccc1)c1cc(-c2ccc(F)cc2F)on1` [Example 4.067b] had a pIC50 of 8.70.

`CC(NC(=O)[C@@H]1CN(C2CCCCC2)CC[C@H]1NC(=O)c1cc(-c2ccc(F)cc2F)on1)C(F)F` (relative stereo) [Example 1.077, (3R*,4R*)-1-Cyclohexyl-4-{[5-(2,4-difluoro-phenyl)-isoxazole-3-carbonyl]-amino}-piperidine-3-carboxylic acid ((1RS)-2,2-difluoro-1-methyl-ethyl)-amide] gave a pIC50 of 6.35.

In turn, `Cn1cc(C(C)(C)NC(=O)[C@H]2CN(CC3CC3)CC[C@@H]2NC(=O)c2cc(-c3ccc(F)cc3F)on2)cn1` [Example 4.043] had a pIC50 of 6.80.

`O=C(N[C@@H]1CCN(C2CCCCC2)C[C@H]1C(=O)NCC1CCCO1)c1cc(-c2ccc(F)cc2F)on1` (relative stereo) [Example 1.044, (3R*,4R*)-1-Cyclohexyl-4-{[5-(2,4-difluoro-phenyl)-isoxazole-3-carbonyl]-amino}-piperidine-3-carboxylic acid ((2RS)-tetrahydro-furan-2-ylmethyl)-amide] had a pIC50 of 6.25.

The molecule `O=C(N[C@@H]1CCN(C2CCCCC2)C[C@H]1C(=O)N1CC(F)C1)c1cc(-c2ccc(F)cc2F)on1` (racemic) [Example 1.036, rac-5-(2,4-Difluoro-phenyl)-isoxazole-3-carboxylic acid [(3R*,4R*)-1-cyclohexyl-3-(3-fluoro-azetidine-1-carbonyl)-piperidin-4-yl]-amide] had a pIC50 of 6.16.

`O=C(N[C@@H]1CCN(C2CCCCC2)C[C@H]1C(=O)N1CCC(c2ccccc2)C1)c1cc(-c2ccc(F)cc2F)on1` (some centres unmarked) [Example 1.07] gave a pIC50 of 6.25.

`CN(C(=O)[C@@H]1CN(C2CCCCC2)CC[C@H]1NC(=O)c1cc(-c2ccc(F)cc2F)on1)C1CC1` (racemic) [Example 1.013, rac-(3R*,4R*)-1-Cyclohexyl-4-{[5-(2,4-difluoro-phenyl)-isoxazole-3-carbonyl]-amino}-piperidine-3-carboxylic acid cyclopropyl-methyl-amide]: the pIC50 is 6.62.

`C[C@@H](NC(=O)[C@@H]1CN(C2CCCCC2)CC[C@H]1NC(=O)c1cc(-c2ccc(F)cc2F)on1)C1CCC1` [Example 4.009] had a pIC50 of 6.24.

Molecule `C[C@@H](NC(=O)[C@@H]1CN(CC2CC2)CC[C@H]1NC(=O)c1cc(-c2c(F)cc(F)cc2F)on1)C1CCC1` (relative stereo) [Example 1.139, (3R*,4R*)-1-Cyclopropylmethyl-4-{[5-(2,4,6-trifluoro-phenyl)-isoxazole-3-carbonyl]-amino}-piperidine-3-carboxylic acid ((R)-1-cyclobutyl-ethyl)-amide] gave a pIC50 of 7.30.

Consider `COCC(C)(C)NC(=O)[C@@H]1CN(CC2CC2)CC[C@H]1NC(=O)c1cn(-c2ccc(F)cc2F)nn1` [Example 1.11], for which the pIC50 is 6.27.

The molecule `CC(NC(=O)[C@H]1CN(C2CCCCC2)CC[C@@H]1NC(=O)c1cc(-c2ccc(F)cc2F)on1)c1ncon1` (some centres unmarked) [Example 4.007] had a pIC50 of 7.28.

Molecule `C[C@@H]1CCC[C@H]1N1CC[C@@H](NC(=O)c2cn(-c3ccc(F)cc3F)nn2)[C@H](C(=O)N[C@H](C)c2ccccn2)C1` [Example 1.12] gave a pIC50 of 6.10.

`O=C(N[C@@H]1CCN(C2CCCCC2)C[C@H]1C(=O)NCCN1CCCC1=O)c1cc(-c2ccc(F)cc2F)on1` (racemic) [Example 1.041, rac-(3R*,4R*)-1-Cyclohexyl-4-{[5-(2,4-difluoro-phenyl)-isoxazole-3-carbonyl]-amino}-piperidine-3-carboxylic acid [2-(2-oxo-pyrrolidin-1-yl)-ethyl]-amide] gave a pIC50 of 7.04.

`O=C(N[C@H]1CCN(CC2CC(F)(F)C2)C[C@@H]1C(=O)NC1(c2ncccn2)CC1)c1cc(-c2ccc(F)cc2F)on1` [Example 2.101] gave a pIC50 of 7.54.

In turn, `CN(C)C(=O)[C@@H]1CN(CC2(C)CCC2)CC[C@H]1NC(=O)c1cc(-c2ccc(F)cc2F)on1` [Example 2.035] gave a pIC50 of 6.92.

Molecule `C[C@@H](NC(=O)[C@@H]1CN(C2CCCCC2)CC[C@H]1NC(=O)c1cc(-c2ccc(F)cc2F)no1)c1ccccn1` (relative stereo) [Example 1.125, (3R*,4R*)-1-Cyclohexyl-4-{[3-(2,4-difluoro-phenyl)-isoxazole-5-carbonyl]-amino}-piperidine-3-carboxylic acid ((R)-1-pyridin-2-yl-ethyl)-amide] gave a pIC50 of 7.09.

In turn, `O=C(N[C@@H]1CCN(CC2CC2)C[C@H]1C(=O)NC1(c2ncccn2)CC1)c1cc(-c2ccc(C(F)(F)F)cc2)on1` (single isomer, unassigned) [Example 1.192b, (3R*,4R*)-1-Cyclopropylmethyl-4-{[5-(4-trifluoromethyl-phenyl)-isoxazole-3-carbonyl]-amino}-piperidine-3-carboxylic acid (1-pyrimidin-2-yl-cyclopropyl)-amide] had a pIC50 of 6.91.

As for `C[C@@H]1CCC[C@H]1N1CC[C@@H](NC(=O)c2cn(-c3ccc(F)cc3F)nn2)[C@H](C(=O)N(C)C)C1` (relative stereo) [Example 1.098, (3R*,4R*)-4-{[1-(2,4-Difluoro-phenyl)-1H-[1,2,3]triazole-4-carbonyl]-amino}-1-((1RS,2RS)-2-Methyl-cyclopentyl)-piperidine-3-carboxylic acid dimethylamide], the negative-log IC50 (pIC50) is 6.56.

Molecule `O=C(N[C@@H]1CCN(C2CCCCC2)C[C@H]1C(=O)NCc1c[nH]cn1)c1cc(-c2ccc(F)cc2F)on1` (racemic) [Example 1.043, rac-(3R*,4R*)-1-Cyclohexyl-4-{[5-(2,4-difluoro-phenyl)-isoxazole-3-carbonyl]-amino}-piperidine-3-carboxylic acid (1H-imidazol-4-ylmethyl)-amide] gave a pIC50 of 6.07.

The molecule `CCN1CC[C@@H](NC(=O)c2cc(-c3ccc(F)cc3F)on2)[C@H](C(=O)N(C)C)C1` [Example 2.002] gave a pIC50 of 6.17.

In the case of `C[C@@H]1CCC[C@H]1N1CC[C@@H](NC(=O)c2cc(-c3ccc(F)cc3F)on2)[C@H](C(=O)N(C)C)C1` [Example 2.023], the pIC50 is 7.43.

For the molecule `CC(C)N(C)C(=O)[C@@H]1CN(C2CCCCC2)CC[C@H]1NC(=O)c1cc(-c2ccc(F)cc2F)on1` (racemic) [Example 1.017, rac-(3R*,4R*)-1-Cyclohexyl-4-{[5-(2,4-difluoro-phenyl)-isoxazole-3-carbonyl]-amino}-piperidine-3-carboxylic acid isopropyl-methyl-amide], the pIC50 was 6.31.

The molecule `CC(C)(CS(C)(=O)=O)NC(=O)[C@@H]1CN(C2CCCCC2)CC[C@H]1NC(=O)c1cc(-c2ccc(F)cc2F)on1` (racemic) [Example 1.081, rac-(3R*,4R*)-1-Cyclohexyl-4-{[5-(2,4-difluoro-phenyl)-isoxazole-3-carbonyl]-amino}-piperidine-3-carboxylic acid (2-methanesulfonyl-1,1-dimethyl-ethyl)-amide] gave a pIC50 of 6.93.

`O=C(N[C@H]1CCN(C2CCCC2)C[C@@H]1C(=O)NC1(c2ccccn2)CC1)c1cc(-c2ccc(F)cc2F)on1` [Example 4.028]: the pIC50 is 7.49.

In turn, `COCC(C)(C)NC(=O)[C@@H]1CN(CC2CC2)CC[C@H]1NC(=O)c1noc(-c2ccc(F)cc2F)n1` (racemic) [Example 1.153, rac-(3R*,4R*)-1-Cyclopropylmethyl-4-{[5-(2,4-difluoro-phenyl)-[1,2,4]oxadiazole-3-carbonyl]-amino}-piperidine-3-carboxylic acid (2-methoxy-1,1-dimethyl-ethyl)-amide] gave a pIC50 of 6.10.

`O=C(N[C@H]1CCN(CC2CC2)C[C@@H]1C(=O)NC1(c2cccc(Cl)c2)CC1)c1cc(-c2ccc(F)cc2F)on1` [Example 4.068] gave a pIC50 of 9.00.

The molecule `Cc1cnc(CNC(=O)[C@@H]2CN(C3CCCCC3)CC[C@H]2NC(=O)c2cc(-c3ccc(F)cc3F)on2)s1` [Example 1.02] had a pIC50 of 6.70.

In turn, `CC(NC(=O)[C@H]1CN(CC2CC2)CC[C@@H]1NC(=O)c1cc(-c2ccc(F)cc2F)on1)c1ncccn1` (some centres unmarked) [Example 4.080a] gave a negative logarithm of the IC50 (pIC50) of 6.07.

With `CCOC(=O)C1(NC(=O)[C@H]2CN(CC3CC3)CC[C@@H]2NC(=O)c2cc(-c3ccc(F)cc3F)on2)CC1` [Example 4.056], the negative logarithm of the IC50 (pIC50) is 7.19.

As for `O=C(N[C@H]1CCN(CC2CC2)C[C@@H]1C(=O)NC1(c2ccccc2)CCC1)c1cc(-c2ccc(F)cc2F)on1` [Example 4.057], the negative-log IC50 (pIC50) is 7.89.

Regarding `O=C(N[C@H]1CCN(C2CCCC2)C[C@@H]1C(=O)NC1(c2cccc[n+]2[O-])CC1)c1cc(-c2ccc(F)cc2F)on1` [Example 2.062b], the pIC50 was 7.85.

Broadly, the pIC50 is −log10 of the IC50, conventionally taken in molar units. A high value points to a low IC50.
